# Measurements from EPA's ToxRefDB 2.
# Columns and labels:
# rat [1] = conditions: Subchronic oral toxicity in rodents, fischer, Gavage/Intubation, dose end: 13 week
# mouse [2] = conditions: Subchronic oral toxicity in rodents, b6c3f1, Gavage/Intubation, dose end: 22 week, group: systemic, systemic / in life observation / clinical signs / aggressive behavior + systemic / in life observation / clinical signs / convulsions + …
# rat [3] = conditions: Carcinogenicity, fischer, Oral, Gavage/Intubation, dose end: 105 week, group: systemic
# mouse [4] = conditions: Subchronic oral toxicity in rodents, b6c3f1, Gavage/Intubation, dose end: 13 week
# rat [5] = conditions: Subchronic oral toxicity in rodents, fischer, Gavage/Intubation, dose end: 13 week, group: systemic, systemic / in life observation / clinical signs / aggressive behavior + systemic / in life observation / clinical signs / hypersensitivity…
# mouse [6] = conditions: Combined chronic toxicity/carcinogenicity, b6c3f1, Oral, Feed, dose end: 2 year, group: systemic
# mouse [7] = conditions: Subchronic oral toxicity in rodents, b6c3f1, Feed, dose end: 12 week, group: systemic
# rat [8] = conditions: Subchronic oral toxicity in rodents, fischer, Feed, dose end: 12 week, group: systemic
# rat [9] = conditions: Combined chronic toxicity/carcinogenicity; fischer; Oral; Feed; dose end: 2 year; group: systemic; systemic / in life observation / body weight / body weight
# [10] = group: maternal, reproductive / reproductive performance / estrous cycle / abnormal
# [11] = group: systemic, systemic / in life observation / body weight / body weight + systemic / in life observation / body weight / body weight gain
# [12] = group: systemic, systemic / in life observation / clinical signs / aggressive behavior + systemic / in life observation / clinical signs / reactivity to …
# [13] = systemic / in life observation / clinical signs / [other] + systemic / in life observation / clinical signs / convulsions
# [14] = systemic / in life observation / clinical signs / [other] + systemic / in life observation / clinical signs / convulsions + systemic / …
# [15] = group: systemic, systemic / in life observation / clinical signs / aggressive behavior + systemic / in life observation / clinical signs / convulsions + …
# [16] = systemic / in life observation / body weight / body weight + systemic / pathology microscopic / liver / carcinoma
# [17] = systemic / pathology microscopic / liver / carcinoma
# [18] = systemic / in life observation / body weight / body weight gain
# [19] = systemic / in life observation / body weight / body weight gain + systemic / pathology microscopic / bone marrow / hyperplasia + systemic / …
smiles,measurement,setting,value
CCCCCc1cc(O)c2c(c1)OC(C)(C)[C@@H]1CCC(C)=C[C@@H]21 [1-trans-delta-9-Tetrahydrocannabinol],LEL,rat [1]; [10],15 mg/kg/day
same,LOAEL,rat [1]; [10],> 500 mg/kg/day
same,NEL,rat [1]; [10],5 mg/kg/day
same,NOAEL,rat [1]; [10],≥ 500 mg/kg/day
same,LOAEL,rat [1]; [11],15 mg/kg/day
same,LEL,rat [1]; [12],5 mg/kg/day
same,NEL,rat [1]; [12],< 5 mg/kg/day
same,NOAEL,rat [1]; [12],5 mg/kg/day
same,LEL,mouse [2],5 mg/kg/day
same,LOAEL,mouse [2],> 500 mg/kg/day
same,NEL,mouse [2],< 5 mg/kg/day
same,NOAEL,mouse [2],≥ 500 mg/kg/day
same,LOAEL,rat [3]; [13],12.5 mg/kg/day
same,NOAEL,rat [3]; [13],< 12.5 mg/kg/day
same,LEL,rat [3]; [14],12.5 mg/kg/day
same,NEL,rat [3]; [14],< 12.5 mg/kg/day
same,LEL,mouse [4]; [10],5 mg/kg/day
same,LOAEL,mouse [4]; [10],> 500 mg/kg/day
same,NEL,mouse [4]; [10],< 5 mg/kg/day
same,NOAEL,mouse [4]; [10],≥ 500 mg/kg/day
same,LOAEL,mouse [4]; [11],500 mg/kg/day
same,LEL,mouse [4]; [15],5 mg/kg/day
same,NEL,mouse [4]; [15],< 5 mg/kg/day
same,NOAEL,mouse [4]; [15],150 mg/kg/day
same,LEL,rat [5],5 mg/kg/day
same,LOAEL,rat [5],> 500 mg/kg/day
same,NEL,rat [5],< 5 mg/kg/day
same,NOAEL,rat [5],≥ 500 mg/kg/day
O=S(=O)([O-])c1ccc(N=Nc2c(O)ccc3cc(S(=O)(=O)[O-])ccc23)cc1.[Na+].[Na+] [FD&C Yellow 6],LOAEL,mouse [6]; [16],> 3750 mg/kg/day
same,NOAEL,mouse [6]; [16],≥ 3750 mg/kg/day
same,LEL,mouse [6]; [17],1880 mg/kg/day
same,NEL,mouse [6]; [17],< 1880 mg/kg/day
same,LEL,mouse [7]; [18],900 mg/kg/day
same,LOAEL,mouse [7]; [18],15000 mg/kg/day
same,NEL,mouse [7]; [18],< 900 mg/kg/day
same,NOAEL,mouse [7]; systemic / in life observation / body weight / body weight gain + systemic / in life observation / body weight / body weight,7500 mg/kg/day
same,LEL,rat [8]; [18],625 mg/kg/day
same,LOAEL,rat [8]; [18],2500 mg/kg/day
same,NEL,rat [8]; [19],300 mg/kg/day
same,NOAEL,rat [8]; [19],1250 mg/kg/day
same,LEL,rat [9],1250 mg/kg/day
same,LOAEL,rat [9],> 1250 mg/kg/day
same,NEL,rat [9],625 mg/kg/day
same,NOAEL,rat [9],≥ 1250 mg/kg/day
